Results taken from publication PMC3386561 (Toxicology in Vitro, 2011).
Converted amounts (≈) assume the structure as drawn. “Also recorded” adds a separate entry of the source.

Experiments:
liver = conditions: cited from earlier work; for Toxicity / liver damage in rats (in words): ref Patel et al., 2011
[1] = system: HepG2-CYP3A4 transfected cells; test: Cell viability; assay type: cell-based; conditions: for Concentration at which a significant decrease in cell viability begins: p < 0.05 vs 0 μM control; for Cytotoxicity (in words): 0-250 μM
HepG2 wild type cells = test: Cell viability; assay type: cell-based; conditions: 24 hr
Cell viability [2] = assay type: cell-based; conditions: human
Cell viability [3] = assay type: cell-based; conditions: human; for viability: % Cell Viability
DCPT hydrolysis in HBSS = assay type: physicochemical; conditions: 250 μM in HBSS, 37 °C, after 24 hr
Solubility in HBSS = assay type: physicochemical
CYP3A4 [4] = target: T1, CYP3A4 (Homo sapiens, UniProt P08684); test: Testosterone 6β-hydroxylation in HepG2 wild type cells; conditions: 0-250 μM testosterone, 1 hr
CYP3A4 [5] = target: T1, CYP3A4; test: in vitro
CYP3A4 [6] = target: T1, CYP3A4

T1 sequence (P08684 whole entry): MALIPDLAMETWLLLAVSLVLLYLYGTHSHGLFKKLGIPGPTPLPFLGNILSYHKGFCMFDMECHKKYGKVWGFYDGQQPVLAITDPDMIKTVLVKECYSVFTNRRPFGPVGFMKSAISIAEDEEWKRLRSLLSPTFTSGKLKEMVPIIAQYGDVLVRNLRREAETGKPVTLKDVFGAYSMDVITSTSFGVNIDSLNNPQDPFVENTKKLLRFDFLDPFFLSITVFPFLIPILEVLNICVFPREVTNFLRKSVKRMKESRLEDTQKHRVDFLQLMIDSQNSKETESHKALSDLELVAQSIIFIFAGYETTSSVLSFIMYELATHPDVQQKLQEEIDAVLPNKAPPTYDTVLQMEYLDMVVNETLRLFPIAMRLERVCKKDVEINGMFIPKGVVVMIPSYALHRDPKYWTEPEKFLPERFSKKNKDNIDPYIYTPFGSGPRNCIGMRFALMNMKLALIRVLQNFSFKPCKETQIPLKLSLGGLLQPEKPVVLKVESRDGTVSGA

In the case of O=C1SCCN1c1cc(Cl)cc(Cl)c1 [2-DCTD, (3,5-dichlorophenyl)-2-thiazolidinone], the “Toxicity / liver damage in rats (in words)” value (shortened to “Toxicity / liver damage”) (liver) is listed as “neither compound produced liver damage”, the Cell viability ([1]; 100 μM, 24 hr) is listed as 99.6 ± 4.6% and the Cell viability ([1]; 250 μM, 24 hr) is listed as 37.3 ± 7.1%.

For O=C=Nc1cc(Cl)cc(Cl)c1 [DPI, 3,5-dichlorophenyl isocyanate], the “Concentration at which a significant decrease in cell viability begins” value (HepG2 wild type cells; p < 0.05 vs 0 μM control) was 25 µM, the CC50 at 24 h (Cell viability [2]) was greater than 250 µM and the viability at 24 h, 250 μM (Cell viability [2]) was no less than 50%. For the same compound, the “Concentration at which a significant decrease in cell viability begins” value ([1]; 24 hr) was 100 µM, the CC50 at 24 h (Cell viability [3]) was greater than 250 µM and the viability at 24 h, 250 μM (Cell viability [3]) was no less than 50%.

Work on CC(=O)N1CCN(c2ccc(OCC3COC(Cn4ccnc4)(c4ccc(Cl)cc4Cl)O3)cc2)CC1 (centres unmarked) [KCZ, ketoconazole, reference compound] yielded a viability (Cell viability [3]) of 106 ± 4.5%.

For O=C1CSCN1c1cc(Cl)cc(Cl)c1 [4-DCTD, 3-(3,5-dichlorophenyl)-4-thiazolidinone], the “Toxicity / liver damage” value (liver) is given as “neither compound produced liver damage”, the CC50 at 24 h (Cell viability [2]) is given as greater than 250 µM and the “Cytotoxicity (in words)” value ([1]; 24 hr) is given as “not cytotoxic; also recorded: not toxic”. The CC50 at 24 h (Cell viability [3]; HepG2-CYP3A4 transfected cells) was greater than 250 µM.

For O=C1CSC(=O)N1c1cc(Cl)cc(Cl)c1 [DCPT, 3-(3,5-dichlorophenyl)-2,4-thiazolidinedione], the “Hepatotoxicity in rats (in words)” value (liver; Fischer 344 rats, ref Kennedy et al., 2003, Patel et al., 2008) is given as “hepatotoxic”, the DCPT remaining (DCPT hydrolysis in HBSS) is given as “less than 50%” and the “Reduction of cell viability” value (HepG2 wild type cells; highest concentration (250 μM) DCPT) is given as “approximately 60%”. For the same compound, the CC50 at 24 h (Cell viability [2]) was 233 ± 19.7 µM, the “Reduction of cell viability” value ([1]; 250 μM DCPT, 24 hr) was 80% and the “Concentration at which a significant decrease in cell viability begins” value ([1]; 24 hr) was 100 µM. For the same compound, the “Decrease in cell viability” value ([1]; DEX pretreatment followed by 100 μM DCPT, compared to controls) was “approximately 10%”, the viability (Cell viability [3]; 100 μM DCPT alone, 24 hr) was 82.6 ± 2.8% and the viability (Cell viability [3]; 100 μM DEX pretreatment 24 hr, then 100 μM DCPT 24 hr) was 73 ± 1%. The viability (Cell viability [3]; 250 μM DCPT alone, 24 hr) was 21.3 ± 3.2%, the CC50 at 24 h (Cell viability [3]; HepG2-CYP3A4 transfected cells) was 160 ± 5.9 µM and the solubility (Solubility in HBSS; HBSS, aqueous buffer) was 250 µM (≈ 65.5 µg/mL).

For O=C(O)CSC(=O)Nc1cc(Cl)cc(Cl)c1 [DCTA, S-(3,5-dichlorophenyl)aminocarbonyl thioglycolic acid], the “Toxicity / liver damage” value (liver) is listed as “toxic”, the CC50 at 24 h (Cell viability [2]) is listed as 65.3 ± 3.9 µM and the “Concentration at which a significant decrease in cell viability begins” value ([1]; 24 hr) is listed as 50 µM. For the same compound, the CC50 at 24 h (Cell viability [3]; HepG2-CYP3A4 transfected cells) was 67.3 ± 8.1 µM.

In the case of CC1SC(=O)N(c2cc(Cl)cc(Cl)c2)C1=O (centres unmarked) [DPMT, 3-(3,5-dichlorophenyl)-5-methyl-2,4-thiazolidinedione], the “Toxicity / liver damage” value (liver) is given as “hepatotoxic”, the CC50 at 24 h (Cell viability [2]) is given as greater than 250 µM and the “Cytotoxicity (in words)” value ([1]; 24 hr) is given as “no observed decrease in viability; also recorded: non-toxic”. For the same compound, the CC50 at 24 h (Cell viability [3]; HepG2-CYP3A4 transfected cells) was greater than 250 µM and the “Solubility in HBSS (in words)” value (Solubility in HBSS; evident at 250 μM) was “issues regarding the solubility”.

In the case of C[C@]12CC[C@H]3[C@@H](CCC4=CC(=O)CC[C@@]43C)[C@@H]1CC[C@@H]2O [Testosterone], the 6β-hydroxylation of testosterone (CYP3A4 [4]) is reported as “no detectable”, the Km (CYP3A4 [5]) is reported as 81.1 ± 5.7 µM and the “Vmax of testosterone 6β-hydroxylation” value (CYP3A4 [6]) is reported as 92.7 ± 13.3 pmol/min/mg protein.
